Results taken from ChEMBL document CHEMBL5244223, “l,8-Naphthalimide based DNA intercalators and anticancer agents. A systematic review from 2007 to 2017” (Eur J Med Chem, 2018).

How the values were obtained:
[1] = Cytotoxicity against human QSG7701 cells assessed as inhibition of cell growth incubated for 48 hrs by MTT assay; assay type: toxicity, cell-based
Bel-7402 = experiment: Cytotoxicity against human Bel-7402 cells assessed as inhibition of cell growth incubated for 48 hrs by MTT assay; assay type: functional, cell-based; details: Bel-7402, 48 h
[2] = Antiproliferative activity against human QSG7701 cells assessed as inhibition of cell proliferation incubated for 48 hrs by MTT assay; assay type: toxicity, cell-based
HepG2 = experiment: Antiproliferative activity against human HepG2 cells assessed as inhibition of cell proliferation incubated for 48 hrs by MTT assay; assay type: functional, cell-based; details: HepG2, 48 h
HCT-116 = experiment: Antiproliferative activity against human HCT-116 cells assessed as inhibition of cell proliferation incubated for 48 hrs by MTT assay; assay type: functional, cell-based; details: HCT-116, 48 h
K562 = experiment: Antiproliferative activity against human K562 cells assessed as inhibition of cell proliferation incubated for 48 hrs by MTT assay; assay type: functional, cell-based; details: K562, 48 h
MDA-MB-231 = experiment: Antiproliferative activity against human MDA-MB-231 cells assessed as inhibition of cell proliferation incubated for 48 hrs by MTT assay; assay type: functional, cell-based; details: MDA-MB-231, 48 h
SMMC-7721 = experiment: Antiproliferative activity against human SMMC-7721 cells assessed as inhibition of cell proliferation incubated for 48 hrs by MTT assay; assay type: functional, cell-based; details: SMMC-7721, 48 h
Saccharomyces cerevisiae = experiment: Antifungal activity against Saccharomyces cerevisiae MTCC 36 assessed as zone of inhibition at 100 ug/ml by well diffusion assay; assay type: functional; details: read-out: IZ
Pseudomonas aeruginosa = experiment: Antibacterial activity against Pseudomonas aeruginosa MTCC 741 assessed as zone of inhibition at 50 ug/ml by well diffusion assay; assay type: functional; details: read-out: IZ
Candida albicans = experiment: Antifungal activity against Candida albicans MTCC 227 assessed as zone of inhibition at 100 ug/ml by well diffusion assay; assay type: functional; details: read-out: IZ
Aspergillus niger = experiment: Antifungal activity against Aspergillus niger MTCC 282 assessed as zone of inhibition at 100 ug/ml by well diffusion assay; assay type: functional; details: read-out: IZ
[3] = system: Staphylococcus epidermidis; experiment: Antibacterial activity against Staphylococcus epidermidis MTCC 435 assessed as zone of inhibition at 50 ug/ml by well diffusion assay; assay type: functional; details: read-out: IZ
Rhizopus arrhizus = experiment: Antifungal activity against Rhizopus oryzae MTCC 262 assessed as zone of inhibition at 100 ug/ml by well diffusion assay; assay type: functional; details: read-out: IZ
Staphylococcus aureus = experiment: Antibacterial activity against Staphylococcus aureus MTCC 96 assessed as zone of inhibition at 50 ug/ml by well diffusion assay; assay type: functional; details: read-out: IZ
Escherichia coli = experiment: Antibacterial activity against Escherichia coli MTCC 443 assessed as zone of inhibition at 50 ug/ml by well diffusion assay; assay type: functional; details: read-out: IZ

Structure (SMILES)	IC50 at 48 h [1] [µM]	IC50 (Bel-7402) [µM]	IC50 at 48 h [2] [µM]	IC50 (HepG2) [µM]	IC50 (HCT-116) [µM]	IC50 (K562) [µM]	IC50 (MDA-MB-231) [µM]	IC50 (SMMC-7721) [µM]	other results
NCCCNCCCNCCCN1C(=O)c2cccc3cc(N)cc(c23)C1=O	> 50	1.06	–	–	–	–	–	–	–
NCCCCNCCCCNCCCCN1C(=O)c2cccc3cc(N)cc(c23)C1=O	> 50	1.06	–	–	–	–	–	–	–
CN(C)CCN1C(=O)c2cccc3cc(NC(=O)NCCCNCCCCN)cc(c23)C1=O	–	–	> 50	> 50	> 50	> 50	> 50	> 50	–
CCC1=C(C(=O)Oc2ccccc2)C(CN2C(=O)c3cccc4cccc(c34)C2=O)NC(=S)N1 (stereo not given)	–	–	–	–	–	–	–	–	zone of inhibition at 100 µg/mL (Saccharomyces cerevisiae): 12 mm; zone of inhibition at 50 µg/mL (Pseudomonas aeruginosa): 12 mm; zone of inhibition at 100 µg/mL (Candida albicans): 12 mm; zone of inhibition at 100 µg/mL (Aspergillus niger): 12 mm; zone of inhibition at 50 µg/mL [3]: 15 mm; zone of inhibition at 100 µg/mL (Rhizopus arrhizus): 12 mm; zone of inhibition at 50 µg/mL (Staphylococcus aureus): 15 mm; zone of inhibition at 50 µg/mL (Escherichia coli): 12 mm
CN(C)CCN1C(=O)c2cccc3cc(NC(=O)NCCCCN)cc(c23)C1=O	–	–	> 50	> 50	> 50	> 50	> 50	> 50	–
CCOC(=O)C1=C(CC)NC(=S)NC1CN1C(=O)c2cccc3cccc(c23)C1=O (stereo not given)	–	–	–	–	–	–	–	–	zone of inhibition at 100 µg/mL (Saccharomyces cerevisiae): 12 mm; zone of inhibition at 50 µg/mL (Pseudomonas aeruginosa): 12 mm; zone of inhibition at 100 µg/mL (Candida albicans): 12 mm; zone of inhibition at 100 µg/mL (Aspergillus niger): 12 mm; zone of inhibition at 50 µg/mL [3]: 15 mm; zone of inhibition at 100 µg/mL (Rhizopus arrhizus): 12 mm; zone of inhibition at 50 µg/mL (Staphylococcus aureus): 15 mm; zone of inhibition at 50 µg/mL (Escherichia coli): 12 mm
CN[C@@H]1[C@H](O[C@H]2[C@H](O[C@H]3[C@H](O)[C@@H](O)[C@H](N=C(N)N)[C@@H](O)[C@@H]3N=C(N)N)O[C@@H](C)[C@]2(O)C=O)O[C@@H](CO)[C@H](O)[C@H]1O [STREPTOMYCIN]	–	–	–	–	–	–	–	–	zone of inhibition at 50 µg/mL (Pseudomonas aeruginosa): 24 mm; zone of inhibition at 50 µg/mL [3]: 23 mm; zone of inhibition at 50 µg/mL (Staphylococcus aureus): 21 mm; zone of inhibition at 50 µg/mL (Escherichia coli): 29 mm
CCC1=C(C(=O)Oc2ccccc2)C(CN2C(=O)c3cccc4cccc(c34)C2=O)NC(=O)N1 (stereo not given)	–	–	–	–	–	–	–	–	zone of inhibition at 100 µg/mL (Saccharomyces cerevisiae): 12 mm; zone of inhibition at 50 µg/mL (Pseudomonas aeruginosa): 12 mm; zone of inhibition at 100 µg/mL (Candida albicans): 12 mm; zone of inhibition at 100 µg/mL (Aspergillus niger): 12 mm; zone of inhibition at 50 µg/mL [3]: 15 mm; zone of inhibition at 100 µg/mL (Rhizopus arrhizus): 12 mm; zone of inhibition at 50 µg/mL (Staphylococcus aureus): 15 mm; zone of inhibition at 50 µg/mL (Escherichia coli): 12 mm
CN(C)CCN1C(=O)c2cccc3cc(NC(=O)CNCCCN)cc(c23)C1=O	–	–	6.42	6.42	6.42	6.42	6.42	6.42	–
CN(C)CCN1C(=O)c2cccc3cc(NC(=O)CNCCCCNCCCN)cc(c23)C1=O	–	–	6.42	6.42	6.42	6.42	6.42	6.42	–
NCCCCNCCCCNCCCCN1C(=O)c2cccc3cc([N+](=O)[O-])cc(c23)C1=O	> 50	1.06	–	–	–	–	–	–	–
NCCCCNCCCCNCCCN1C(=O)c2cccc3cccc(c23)C1=O	> 50	1.06	–	–	–	–	–	–	–
NCCCCNCCCCNCCCCN1C(=O)c2cccc3c(Cl)ccc(c23)C1=O	> 50	1.06	–	–	–	–	–	–	–
NCCCNCCCCNCCCN1C(=O)c2cccc3cc(N)cc(c23)C1=O	> 50	1.06	–	–	–	–	–	–	–
NCCCNCCCNCCCN1C(=O)c2cccc3c(Cl)ccc(c23)C1=O	> 50	1.06	–	–	–	–	–	–	–
NCCCNCCCCNCCCCN1C(=O)c2cccc3cccc(c23)C1=O	> 50	1.06	–	–	–	–	–	–	–
CN(C)CCNCC(=O)Nc1cc2c3c(cccc3c1)C(=O)N(CCN(C)C)C2=O	–	–	6.42	6.42	6.42	6.42	6.42	6.42	–
CN(C)CCN1C(=O)c2cccc3cc(NC(=O)CNCCCCNCCCCNCCCCN)cc(c23)C1=O	–	–	6.42	6.42	6.42	6.42	6.42	6.42	–
